From patent US10407454B2, “Defined enzymatic synthesis of lipid A analogs” (The Board of Trustees of the Leland Stanford Junior …, priority 2016, dated 2019)

Biological target: T1, TLR4 (Homo sapiens, UniProt O00206+Q9Y6Y9)
T1 construct: endogenous in cells; host or cells: HUVEC
Test: TLR signaling assay: IL-6 release (ELISA) from LPS-stimulated HUVEC cells pretreated with Lipid IVA or analogs
Format: cell-based
Conditions: 1 hour pretreatment, then 100 ng/mL LPS, supernatant 18 hours after LPS, mean ± SD of triplicate wells (LPS only: 425 ± 7)
Experimental: Antagonistic Effect of Unsaturated Lipid IVA. To examine the antagonistic effect of the Lipid IVA analogues produced by our reconstituted system, products from sample 1-3 were assayed against LPS stimulated HUVEC microphage cell line. IL-6 level was measured as an indicator of TLR4 suppression. As a negative control, an in vitro reaction lacking acetyl-CoA was run and processed in parallel. Lipid IVA samples was quantified via mass spectrometry by comparing with a standard curve generated from synthetic Lipid IVA standard. […]
TLR Signaling Assays. HUVECs were grown to approximately 80% confluency in plastic 48-well cell culture plates. Six hours prior to the beginning the assay, medium was aspirated and replaced with 200 μL fresh medium per well. 100× stock dilutions of LPS (in sterile water) and Lipid IVa (in methanol) were freshly prepared from lyophilized solids. Cells were subjected to a 1-hour preincubation with the indicated amounts of Lipid IVa, or Samples 1, 2, or 3, and then LPS (100 ng/mL) was added. Aliquots of the culture supernatant were taken after 18 hours, frozen at −20 C, and then analyzed for IL-6 using a commercial ELISA kit following the manufacturer's (eBioSciences) recommended protocol.

T1 sequence (O00206 24-839): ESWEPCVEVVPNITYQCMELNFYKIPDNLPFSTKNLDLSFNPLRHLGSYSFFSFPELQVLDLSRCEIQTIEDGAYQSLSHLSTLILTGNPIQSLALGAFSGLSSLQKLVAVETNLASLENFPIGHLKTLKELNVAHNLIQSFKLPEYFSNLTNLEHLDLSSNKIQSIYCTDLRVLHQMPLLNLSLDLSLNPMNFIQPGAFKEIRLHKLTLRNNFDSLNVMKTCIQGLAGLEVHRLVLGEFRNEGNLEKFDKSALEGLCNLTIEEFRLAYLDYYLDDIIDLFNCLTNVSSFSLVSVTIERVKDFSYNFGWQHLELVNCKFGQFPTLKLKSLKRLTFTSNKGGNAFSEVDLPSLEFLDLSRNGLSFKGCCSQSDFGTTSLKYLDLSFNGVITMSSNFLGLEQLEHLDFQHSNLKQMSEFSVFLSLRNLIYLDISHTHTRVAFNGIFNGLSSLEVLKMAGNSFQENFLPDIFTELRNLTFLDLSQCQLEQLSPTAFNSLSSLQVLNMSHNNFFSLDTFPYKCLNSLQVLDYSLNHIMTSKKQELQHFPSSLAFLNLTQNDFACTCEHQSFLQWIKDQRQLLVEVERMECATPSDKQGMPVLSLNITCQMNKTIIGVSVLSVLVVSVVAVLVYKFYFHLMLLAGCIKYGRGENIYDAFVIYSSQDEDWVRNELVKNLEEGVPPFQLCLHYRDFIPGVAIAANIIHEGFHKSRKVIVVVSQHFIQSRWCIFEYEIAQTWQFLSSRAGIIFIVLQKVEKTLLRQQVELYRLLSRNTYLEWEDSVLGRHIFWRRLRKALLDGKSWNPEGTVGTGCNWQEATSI
T1 sequence (Q9Y6Y9 19-160): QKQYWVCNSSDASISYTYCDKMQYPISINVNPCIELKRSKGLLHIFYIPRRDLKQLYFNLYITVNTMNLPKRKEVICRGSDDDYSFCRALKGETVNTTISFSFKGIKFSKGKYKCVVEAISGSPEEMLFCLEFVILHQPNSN

CCCCCCCCCCC[C@@H](O)CC(=O)N[C@H]1[C@H](OC[C@H]2O[C@H](OP(=O)(O)O)[C@H](NC(=O)C[C@H](O)CCCCCCCCCCC)[C@@H](OC(=O)C[C@H](O)CCCCCCCCCCC)[C@@H]2O)O[C@H](CO)[C@@H](OP(=O)(O)O)[C@@H]1OC(=O)C[C@H](O)CCCCCCCCCCC [Lipid IVA]
[IL-6] (pg/mL) in HUVEC culture supernatant (10 ng/mL compound): 484 ± 25 pg/mL | [IL-6] (pg/mL) in HUVEC culture supernatant (100 ng/mL compound): 212 ± 33 pg/mL | [IL-6] (pg/mL) in HUVEC culture supernatant (500 ng/mL compound): 57 ± 3 pg/mL
